Results taken from patent US20240241108A1, “LUNG ORGANOID MODEL AND METHOD OF USE” (The Regents of the University of California, priority 2021, published 2024).

Legend:
SARS-COV-2 [1] = assay: Pre-clinical drug screen in SARS-COV-2-infected lung organoid monolayers (384-well), viral E gene qPCR readout; type: cell-based; conditions: FIG. 3G; for viral titer (abundance of E gene in the monolayers): pre-treated for 4 hours prior to infection, assessed at 48 hours post-infection, DMSO control
Procedure: Using the E gene as a readout, it was determined whether lung organoid models could be used as platforms for pre-clinical drug screens. The efficacy of nucleoside analog N^4-hydroxycytidine (NHC: EIDD-parent) and its derivative pro-drug. EIDD-2801, were tested. […] Lung organoid monolayers plated in 384-wells were pre-treated for 4 hours with the compounds or DMSO, as a control, prior to infection. The monolayers were assessed at 48 hours post-infection for the abundance of E gene in the monolayers.
Densely packed organoids, collected in PBS/0.5 mM EDTA were centrifuged at 200 rcf for 5 minutes. Organoids were dissociated in 2 mL trypLE Select (Gibco, USA) per 12 wells of organoids at 37 °C for 4-5 minutes and mechanically sheared by pipetting up and down. The TrypLE was inactivated with al-to-5 trypLE to Lung Wash Media ratio. The cells were thereafter centrifuged at 300 g for 4 minutes. The supernatant was aspirated and resuspended in the cell pellet at room temperature using PneumaCult Ex-Plus Mix, with larger clumps of cells being filtered out using […] filter. The viable cells were counted and plated using PneumaCult Ex-Plus media. Cells were either plated 10^5 cells per well in a 96 well plate, or 2×10^4 cells per well in a 384 well Matrigel coated plate. The media was changed after 24 hours of incubation. After 48 hours of plating, the cells were differentiated and appeared flattened. The cells were then infected with MOI of 0.5 with SARS-COV-2. After treatment, the lung monolayers were used for RNA sequencing, immunostaining, and other functional assay.
Lung organoid-derived monolayers or primary airway epithelial cells, either in 384 well plates or in transwells, were washed twice with antibiotic-free lung wash media. […]
Assessment of SARS-COV-2 infectivity test was determined by qPCR using TaqMan assays and TaqMan Universal PCR Master Mix96.97. cDNA was amplified with gene-specific primer/probe set for the E gene and qPCR was performed with the Applied Biosystems QuantStudio 3 Real-Time PCR System. […]

SARS-COV-2 [2] = conditions: cited from earlier work
SARS-COV-2 [3] = conditions: cited from earlier work; remark: listed apart in the source

| SMILES | efficacy compared with the parent compound (reduction of viral titer) (SARS-COV-2 [1]; pre-treated 4 hours, 48 hours post-infection) | viral titer (abundance of E gene in the monolayers) (SARS-COV-2 [1]) | inhibition of viral replication in SARS-COV-2-challenged ferrets (SARS-COV-2 [2]) | inhibition of viral replication in vitro (SARS-COV-2 [3]) |
| --- | --- | --- | --- | --- |
| CC(C)C(=O)OC[C@H]1O[C@@H](n2ccc(NO)nc2=O)[C@H](O)[C@@H]1O [EIDD-2801] | showed a better efficacy | effectively reduced the viral titer in a dose-dependent manner | inhibit viral replication | inhibit viral replication |
| O=c1nc(NO)ccn1[C@@H]1O[C@H](CO)[C@@H](O)[C@H]1O [NHC, N^4-hydroxycytidine] |  | effectively reduced the viral titer in a dose-dependent manner | inhibit viral replication | inhibit viral replication |
